Holding throughout (format): cell-based
In test [1] the test system is Chlamydia trachomatis (Ctr) strain L2/434/Bu. The test is described as follows: Chlamydia trachomatis progeny infection of HeLa229 cells, cellular protection by compounds at 25 μM (GFP-signal, Image J quantification). The following applies: HeLa229 cells pretreated 1 hour, Ctr MOI1, progeny infection fixed 48 hpi, versus solvent-treated cells. The method, then: HeLa229 (ATCC CCL-2.1). Cells were grown in RPMI1640 medium (Glutamax, 10% FBS, w/o HEPES) (Invitrogen).
Chlamydia trachomatis (Ctr). Laboratory-adapted strain L2/434/Bu (ATCC VR902B) was used in assays. Full biological and genetic information is available for this strain including complete genome sequence and defined proteome. This strain has a relatively low particle to infectivity ratio, perform efficient cell infection and has a higher viability than standard genital tract isolates with faster developmental cycle. Culture conditions have been described in (Wang Y., Kahane S., Cutcliffe L. T., Skilton R. J., Lambden P. R., Clarke I. N. Development of a transformation system for Chlamydia trachomatis: Restoration of glycogen biosynthesis by acquisition of a plasmid shuttle vector. PLoS Pathogen, 2011, 7(9):e1002258. doi: 10.1371/journal.ppat.1002258).
Compound application during Chlamydia trachomatis infection. HeLa229 cells were pretreated with Retro-2 and Retro-2 derivatives in concentrations of 25 μM for 1 hour until Chlamydia trachomatis (MOI1) were added to the cells. Compounds were present during infection. To obtain progeny infection, compound treated cells were lysed 24 h post infection (hpi) and lysate was used to infect fresh HeLa 229 cells. Infected cells of progeny infection were fixed with 4% Paraformaldehyde 48 hpi. Cells were stained for DAPI and Chlamydia trachomatis were detected by GFP-signal. Images are representative of n=2 independent experiments. Quantification of infected cells by Chlamydia trachomatis was realized from microscopy images with Image J software (FIG. 8) and cellular protection by compounds at 25 μM was then determined (Table 1) by comparison with solvent-treated cells (control) with the following equation: […]

For test [2], the system named is Simkania negevensis (Sn) strain Z. The test can be described thus: Simkania negevensis (Sn) infectivity assays in HeLa229 cells (primary and progeny infection; GroEL immunoblot, inclusion size/number, microscopy, TEM). Here is the method:
(§1) HeLa229 (ATCC CCL-2.1) were grown in RPMI1640 medium (Glutamax, 10% FBS, w/o HEPES) (Invitrogen). Stable HeLa229 cell lines were established to constantly label the Golgi apparatus (B4GalT1 in a pCMV6-AC-mRFP cloning vector, OriGene) and the ER (KDEL in a pDsRed2-ER expression vector).
Simkania negevensis (Sn) strain Z (ATCC VR-1471) was prepared as described previously (Mehlitz A, Karunakaran K, Herweg J A, Krohne G, van de Linde S, Rieck E, Sauer M, Rudel T. The chlamydial organism Sn forms ER vacuole contact sites and inhibits ER-stress. Cell Microbiol 2014; 16(8):1224-1243).
Briefly, HeLa229 cells were grown to 50-70% confluence, were inoculated with Sn in RPMI1640 with 5% FBS, for 6 h at 35° C. in a humidified incubator at 5% CO2. Medium was replaced by infection medium (RPMI1640, Glutamax, 5% FBS, w/o HEPES) and growth was allowed for 3 days. Cells were mechanically detached and bacteria were released using ˜2-5 mm glass beads (Carl Roth). Low speed supernatant (600×g, 4° C. and 5 min) was subjected to high-speed centrifugation (20,000×g, 4° C. and 30 min) to pellet bacteria. Bacteria were washed twice with 5 ml SPG (250 mM sucrose, 50 mM sodium phosphate, 5 mM glutamate, pH 7.4), aliquoted and stored at −80° C. in SPG.
40,000 HeLa cells were seeded in 12-well cluster plates, inhibitor-treated and infected as indicated in the respective experiments.
For infectivity assays cells were either fixed and stained at indicated time points (FIG. 2, 4; inclusion formation/primary infection) or bacteria were released via one freeze thaw cycle (−70° C./37° C.) followed by mechanical release through pipetting and transfer to fresh HeLa229 cells (1:25-1:50, progeny/infectivity). Cells were centrifuged for 1 h at 35° C. and medium exchanged to infection medium. […] Infectivity assays were imaged on an automated fluorescence microscope Leica DMIR (FIG. 4). Numbers and average sizes of the SCV as well as host cell numbers were determined via GroEL and DAPI staining and images were analysed and quantified using FIJI (ImageJ) and Excel (Microsoft). […]
(In general: A western blot detects proteins with antibodies after separation by electrophoresis.)

For test [3], the system named is Chlamydia trachomatis (Ctr) strain L2/434/Bu. The test can be described thus: Chlamydia trachomatis (Ctr) infectivity assays in HeLa229 cells with Retro-2 at 25, 50 and 75 μM (HSP60 immunoblot, GFP-signal). Here is the method: as §1
Chlamydia trachomatis (Ctr). Laboratory-adapted strain L2/434/Bu (ATCC VR902B) was used in assays. Full biological and genetic information is available for this strain including complete genome sequence and defined proteome. This strain has a relatively low particle to infectivity ratio, perform efficient cell infection and has a higher viability than standard genital tract isolates with faster developmental cycle. […]
(A) Cells with primary infection were lysed 24 h post infection (hpi). […] Progeny infection was lysed 24 hpi and analyzed together with primary infection samples by immunoblot. Chlamydial growth was detected with antibodies against chlamydial HSP60 protein and Actin was used as loading control (FIG. 6).
(B) Infected cells were fixed with 4% Paraformaldehyde 24 hpi. Cells were stained by Alexa-680 coupled Phalloidin and Ctr were detected by GFP-signal (FIG. 7).

We go through 6 compounds from patent publication US9598406B2, “Quinazolinone derivatives for use in the treatment of chlamydiales infections” (Commissariat a l'Energie Atomique et aux Energies …, priority 2015, dated 2017).

With `Cc1nc(-c2ccc(C3Nc4ccccc4C(=O)N3c3ccccc3)s2)cs1` (centres unmarked) [Compound 25, 2-(5-(2-methylthiazol-4-yl)thiophen-2-yl)-3-phenyl-2,3-dihydroquinazolin-4(1H)-one], the “Cellular protection at 25 μM (%)” value in test [1] is 100%. The same measure, in the same setting: then `CN1c2ccccc2C(=O)N(c2ccccc2)C1c1ccc(Br)s1` (centres unmarked) [RN-2-016, 2-(5-bromothiophen-2-yl)-1-methyl-3-phenyl-2,3-dihydroquinazolin-4(1H)-one], with 91.8%.

As for `Cc1nc(-c2ccc(C3N(C)c4ccccc4C(=O)N3c3ccccc3Cl)s2)cs1` (centres unmarked) [RN-3-072, 3-(2-chlorophenyl)-1-methyl-2-(5-(2-methylthiazol-4-yl)thiophen-2-yl)-2,3-dihydroquinazolin-4(1H)-one], the “Cellular protection at 25 μM (%)” value in test [1] is listed as 100%.

For the compound `Cc1ccc(C2Nc3ccccc3C(=O)N2c2ccccc2)s1` (centres unmarked) [Retro-2, 2-(5-methylthiophen-2-yl)-3-phenyl-2,3-dihydroquinazolin-4(1H)-one], the “Concentration at which maximal inhibition of Sn replication was observed” value in test [2] (HeLa cells, FIGS. 1-4) was found to be 75 µM. Besides, the “Effect on primary and progeny infection for Sn” value in test [2] (HeLa cells, Retro-2 at 25 and 75 μM, GroEL western, inclusion size, inclusion number, microscopy) is “inhibitir effect on primary and progeny infection”. Also, the “Sn inclusions morphology (transmission electron microscopy)” value in test [2] (infected HeLa cells, versus DMSO-treated control, FIG. 5) was “sub-vacuolar membranes were highly enlarged and contained excessive membrane material”. In test [1], the “Cellular protection at 25 μM (%)” value was 18.1%. Besides, the “Ctr Hsp60 detection in the progeny infection” value in test [3] (75 μM of Retro-2, immunoblot, FIG. 6) is “almost no Ctr Hsp60 detection”. For the same compound, in test [3] (HeLa229 cells, Retro-2 25, 50 and 75 μM, primary infection 24 hpi), the “Effect on Ctr development (Hsp60 western, GFP-expressing Ctr inclusions)” value is recorded as “strong inhibitory effect”.

With `Cc1nc(-c2ccc(C3N(C)c4ccc(F)cc4C(=O)N3c3ccccc3)s2)cs1` (centres unmarked) [Retro-2.1, 6-fluoro-1-methyl-2-(5-(2-methylthiazol-4-yl)thiophen-2-yl)-3-phenyl-2,3-dihydroquinazolin-4(1H)-one], the “Cellular protection at 25 μM (%)” value in test [1] was found to be 100%.

Regarding `CN1c2ccccc2C(=O)N(c2ccccc2)C1c1ccc(-c2csc(-c3ccc(F)cc3)n2)s1` (centres unmarked) [VP-89, 2-(5-(2-(4-fluorophenyl)thiazol-4-yl)thiophen-2-yl)-1-methyl-3-phenyl-2,3-dihydroquinazolin-4(1H)-one], the “Cellular protection at 25 μM (%)” value in test [1] was 88.5%.
